Results: ChEMBL document CHEMBL3885881, “DrugMatrix”

Species on record: Rattus norvegicus
Type: toxicity, organism-based, Sprague-Dawley
Details: in vivo, sc, 0 mg/kg, 24 h, route mini-PUMP - SUBCUTANEOUS, dose level Control, time 1 day, vehicle 100 % SALINE
Description: DrugMatrix - Regimen: Single

CNC[C@H](O)c1ccc(O)c(O)c1 [EPINEPHRINE]
ABSOLUTE EOSINOPHIL (tissue Blood): 26.17 CELLS/uL
ABSOLUTE LYMPHOCYTE (tissue Blood): 10985.83 CELLS/uL
ABSOLUTE MONOCYTE (tissue Blood): 234.5 CELLS/uL
ABSOLUTE SEGMENTED NEUTROPHIL (tissue Blood): 1753.5 CELLS/uL
BASOPHIL (tissue Blood): 0%
EOSINOPHIL (tissue Blood): 0.17%
ERYTHROCYTE COUNT (tissue Blood): 5.64 x10E6/uL
HEMOGLOBIN (tissue Blood): 12.68 G/DL
LEUKOCYTE COUNT (tissue Blood): 13 x10E3/uL
LYMPHOCYTE (tissue Blood): 84.5%
MEAN CORPUSCULAR HEMOGLOBIN (tissue Blood): 22.5 pg
MEAN CORPUSCULAR HEMOGLOBIN CONCENTRATION (tissue Blood): 36.78 G/DL
MEAN CORPUSCULAR VOLUME (tissue Blood): 61.18 fL
NEUTROPHIL (tissue Blood): 13.5%
NUCLEATED RED BLOOD CELLS (tissue Blood): 0.17 /100WBC
PLATELET COUNT (tissue Blood): 679.17 x10E3/uL
ALANINE AMINOTRANSFERASE (tissue Plasma): 42.67 u/L
ALBUMIN (tissue Plasma): 3.77 G/DL
ALKALINE PHOSPHATASE (tissue Plasma): 291.17 u/L
ASPARTATE AMINOTRANSFERASE (tissue Plasma): 74.5 u/L
BLOOD UREA NITROGEN (tissue Plasma): 15.33 mg/dL
CARBON DIOXIDE (tissue Plasma): 30 mmol/L
CHLORIDE (tissue Plasma): 100.83 MEQ/L
CHOLESTEROL (tissue Plasma): 65.33 mg/dL
CREATININE (tissue Plasma): 0.15 mg/dL
LACTATE DEHYDROGENASE (tissue Plasma): 162.67 u/L
LIPASE (tissue Plasma): 8.5 u/L
PHOSPHORUS (tissue Plasma): 12.2 mg/dL
POTASSIUM (tissue Plasma): 5.73 MEQ/L
SODIUM (tissue Plasma): 144.7 MEQ/L
TOTAL BILIRUBIN (tissue Plasma): 0.15 mg/dL
TOTAL PROTEIN (tissue Plasma): 5.87 G/DL
URIC ACID (tissue Plasma): 1.93 mg/dL
